Measurements from patent publication US5138101A, “Recovery of high-boiling aldehydes from rhodium-catalyzed hydroformylation processes” (Eastman Kodak Company, priority 1991, dated 1992).
Each block holds one compound with its values, some of them ahead of it.

Key:
[1] = Partitioning (partition coefficient, Kp) of hydroformylation products and hydroformylation solvent between hydroformylation solvent phase and alkanol/water extraction solution phase; type: physicochemical
Excerpt: The extraction process described herein is the equilibration of a particular compound dissolving into two separate liquid phases. The effectiveness of the present extraction process may be measured in terms of the partition coefficient (Kp) for a compound "X" which is defined as: [formula] […] High Kp values give high extraction efficiencies requiring lower amounts of extraction solution. Similarly, it is desirable that the Kp of the hydroformylation solvent be a low value. This simplifies purification of the aldehyde products down-stream. In the hydroformylation of diolefins to dialdehydes, it also is desirable to have Kp values for the dialdehyde products larger than the Kp values of the intermediate mono-aldehyde mono-olefin (formyl-olefin) intermediate formed in the hydroformylation reaction. This permits recycling of the formyl-olefin to the hydroformylation reactor in the hydroformylation solvent for further reaction to the desired dialdehyde product, while selectively extracting the desired di-aldehyde product. Likewise, for the same reason, it is desirable to have low Kp values for the olefin or polyolefin feedstocks used in the process.
The extraction examples were carried out in a 300 mL, 3-neck, glass flask equipped with a Teflon magnetic stir bar, a thermometer to measure the temperature of the liquid, a septum for the use of a syringe, a heating mantle and a nitrogen bubbler blanket for the system. […] […] The mixture was stirred at 25° C. for 30 minutes to reach equilibrium, stirring was stopped, and the mixture was allowed to separate into 2 layers (phases) over a 30 minute period of time. […] Samples of each phase were taken with a syringe and chromatographed on a Hewlett Packard Model 5730 capillary FID gas chromatograph. The instrument used a 30 meter DB-1 column (Supelco.) with a programming rate of a 4 minute hold at 70° C. with a programming rate of 8° C./minute to 250° C. The calculations for the weights of hydroformylation products in each phase were carried out using standard procedures using the dodecane as an internal standard for the catalyst layer and methanol as the internal standard for the aqueous layer. The initial volumes of the two phases were used for estimation of the volumes of the two phases at equilibrium to obtain the concentrations of the products in each phase.
The partition coefficients (Kp) were calculated for the C9-enal and C10-dial products for equilibrium between the dodecane hydroformylation solvent and the extraction solution phases at 25° C.
The two phases in the flask were heated to and maintained at 53° C. with stirring for 30 minutes to reach equilibrium. The mixture was allowed to separate into 2 layers at 53° C. and each layer was sampled and analyzed as described above. […] The partitioning procedure was repeated at 70° C.

[2] = Extraction and back-extraction with p-diisopropylbenzene or 1,7-octadiene: rhodium concentration in both phases, composition of extraction solution; type: physicochemical
Procedure: Examples […] illustrate yet another embodiment of the process of the present invention wherein extraction solution containing dissolved rhodium is back-extracted with either hydroformylation solvent or olefinic feedstock to reduce the concentration of rhodium in the extraction solution.
The general procedure described in Examples 31-48 was used to extract 60.5 mL of hydroformylation product solution obtained by the hydroformylation of 1,7 octadiene in the presence of a catalyst system comprising rhodium and BISBI phosphine (Reference Example 9). […] The extraction flask was charged with the hydroformylation product solution, 37 mL methanol, 12 mL water and […] [Na] provided as sodium oleate.
For Example 88, the extraction mixture was stirred at room temperature for 30 minutes and then drained into a calibrated, addition funnel and allowed to stand for about five minutes to permit phase separation. The volume of the hydroformylation product solution (organic) phase was 45 mL and the volume of the extraction solution phase was 65 ml. Samples of each phase were taken for rhodium and product composition analyses.
For Example 89, the extraction solution phase separated in Example 88 was added to a clean 250 mL flask along with 30 mL of p-diisopropylbenzene and the mixture was stirred at 50° C. for 30 minutes, was allowed to stand at 50° C. for about 5 minutes to permit phase separation and then each phase was separated and analyzed for composition and rhodium concentration.
For Example 90, the extraction solution separated in Example 89 was added to a clean 250 mL flask along with another 30 mL of p-diisopropylbenzene hydroformylation solvent. The mixture was agitated at 50° C. for thirty minutes, allowed to stand at 50° C. for 5 minutes to permit phase separation and each phase was analyzed for composition and rhodium concentration.
This scheme would be useful in a counter-current extraction method for recycling recovered hydroformylation product solution as well as in using the olefinic feed to the reactor as a back extraction solvent for recovering soluble rhodium from the methanol/water extract.
Example 91 was carried out using the procedure described in Examples 88. The flask was charged with 62 mL of a hydroformylation product solution (Reference Example 10) having a rhodium concentration 166 mg/L and containing 3.01 g of C9-enal, 12.69 g of C10-dial and 37.84 grams of p-diisopropylbenzene. Methanol (37 ml), water (16 ml) and 78 mg Na (as sodium 2-ethylhexanoate) were added to the flask. This mixture was stirred at 50° C. for 30 minutes and then allowed to stand for 5 minutes at 50° C. to permit phase separation. The hydroformylation product solution (organic) phase and the extraction solution phase were both sampled and analyzed for rhodium concentration. The 2 phases were drained into a clean, graduated addition funnel and the volumes of the two phases were measured. The volume of the organic layer was 43 mL and the extraction solution layer was 62 mL.
For Example 92, the extraction solution phase produced in Example 91 was added to a clean, 250 mL flask along with 30 mL of p-diisopropylbenzene and the mixture was stirred at 50° C. for 30 minutes and then allowed to separate into two phases. The two phases were analyzed for rhodium concentration and composition. The mixture was drained into a clean addition funnel to separate the two phases. For Example 93, the extraction solution phase of Example 92 and 30 mL of 1,7-octadiene were added to a clean, 250 mL flask. This mixture was stirred at 50° C. for 30 minutes and then allowed to separate into two phases which were analyzed for rhodium concentration.
The amounts (g) of C9-enal, C10-dial in the sample of hydroformylation product solution initially extracted and in the methanol/water extraction solutions resulting from Examples 91, 92 and 93 are given in Table XIII. The ratio given in Table XIII is the weight ratio of C10-dial:C9-enal. […]

[3] = Example 92, after p-diisopropylbenzene back-extraction
[4] = Example 93, after 1,7-octadiene back-extraction

Compound: C1CCC2CCCCC2C1 (stereo not drawn) [decahydronaphthalene]
Partition Coefficient ([1]; Example C-4, Ref. Ex. 17, DEG:water 1:1, 25° C.): 0.0050 | Partition Coefficient ([1]; Example C-5, Ref. Ex. 17, DEG:water 1:1, 70° C.): 0.034

Compound: CCCCC(CC)COC(=O)c1ccccc1C(=O)OCC(CC)CCCC (stereo not drawn) [di-(2-ethylhexyl) phthalate]
Partition Coefficient ([1]; Example 16, Ref. Ex. 23, MeOH:water 3:1, 50° C.): 0.0448 | Partition Coefficient ([1]; Example 17, Ref. Ex. 23, MeOH:water 1:1, 50° C.): 0.0037

Compound: c1ccc2c(c1)CCCC2 [tetrahydronaphthalene]
Partition Coefficient ([1]; Example 15, Ref. Ex. 22, MeOH:water 1.5:1, 52° C.): 0.079 | Partition Coefficient ([1]; Example C-6, Ref. Ex. 18, DEG:water 3:1, 25° C.): 0.092

Composition of Extraction Solution (amount) ([2]; Example 91): 11.67 g | Weight ratio of C10-dial:C9-enal in extraction solution ([2]; Example 91): 8.40 | Weight ratio of C10-dial:C9-enal in extraction solution ([2]; Example 92): 18.06 | Composition of Extraction Solution (amount) [2, 3]: 9.21 g | Weight ratio of C10-dial:C9-enal in extraction solution ([2]; Example 93): 33.94 | Composition of Extraction Solution (amount) [2, 4]: 6.11 g
Compound: isomeric decanedialdehyde [C10-dial]

Composition of Extraction Solution (amount) ([2]; Example 91): 1.39 g | Composition of Extraction Solution (amount) [2, 3]: 0.51 g | Composition of Extraction Solution (amount) [2, 4]: 0.18 g
Compound: isomeric noneneal [C9-enal]
